The record followed here is patent US20070004660A1, “Synergistic Modulation of Flt3 Kinase Using Alkylquinolines and Alkylquinazolines” (priority 2005, published 2007).

Usually IC50 stands for the concentration needed to halve the response being measured. A low value points to greater potency.

Structures can show the parent of a compound that is named as a salt.

In the assay the test system is MV4-11 cells. Kind of assay: Inhibition of MV4-11 cell proliferation (CellTiterGlo, 72 h). It is filed as cell-based. The conditions noted are these: Homo sapiens; 72 h growth inhibition; uncertainty ±20%. For orientation: Cellular ATP, detected with luciferase, serves as a proxy for viable cell number.

For the compound `O=C(Nc1ccc(N2CCCC2)cc1)N1CCC(c2ncnc3cc(N4CCNC4=O)ccc23)CC1` [Compound 178, 4-[7-(2-Oxo-imidazolidin-1-yl)-quinazolin-4-yl]-piperidine-1-carboxylic acid (4-pyrrolidin-1-yl-phenyl)-amide], the half-inhibitory concentration (IC50) was found to be 11 nM. In the case of `O=C(Nc1ccc(N2CCCC2)cc1)N1CCC(c2ncnc3cc(N4CCCC4)ccc23)CC1` [Compound 179, 4-(7-Pyrrolidin-1-yl-quinazolin-4-yl)-piperidine-1-carboxylic acid (4-pyrrolidin-1-yl-phenyl)-amide], the half-maximal inhibitory concentration (IC50) turned out to be 34 nM. For `O=C(Nc1ccc(N2CCCC2)cc1)N1CCC(c2ncnc3cc(-n4ccnc4)ccc23)CC1` [Compound 180, 4-(7-Imidazol-1-yl-quinazolin-4-yl)-piperidine-1-carboxylic acid (4-pyrrolidin-1-yl-phenyl)-amide] the value was 20 nM; for `O=C(Nc1ccc(N2CCCC2)cc1)N1CCC(c2ncnc3cc(N4CCOCC4)ccc23)CC1` [Compound 181, 4-(7-Morpholin-4-yl-quinazolin-4-yl)-piperidine-1-carboxylic acid (4-pyrrolidin-1-yl-phenyl)-amide], 9 nM. As to `O=C(Nc1ccc(N2CCCC2)cc1)N1CCC(c2ncnc3cc(N4CCSCC4)ccc23)CC1` [Compound 182, 4-(7-Thiomorpholin-4-yl-quinazolin-4-yl)-piperidine-1-carboxylic acid (4-pyrrolidin-1-yl-phenyl)-amide], the concentration for half-maximal inhibition (IC50) is 107 nM. For `O=C1CN(c2ccc3c(C4CCN(C(=O)Nc5ccc(N6CCCC6)cc5)CC4)ncnc3c2)CCN1` [Compound 183, 4-[7-(3-Oxo-piperazin-1-yl)-quinazolin-4-yl]-piperidine-1-carboxylic acid (4-pyrrolidin-1-yl-phenyl)-amide] the value was 18 nM; for `CN1CCN(c2ccc3c(C4CCN(C(=O)Nc5ccc(N6CCCC6)cc5)CC4)ncnc3c2)CC1=O` [Compound 184, 4-[7-(4-Methyl-3-oxo-piperazin-1-yl)-quinazolin-4-yl]-piperidine-1-carboxylic acid (4-pyrrolidin-1-yl-phenyl)-amide], 58 nM.

In turn, `O=C(Nc1ccc(N2CCCC2)cc1)N1CCC(c2ncnc3cc(N4CCN(CCO)CC4)ccc23)CC1` [Compound 185, 4-{7-[4-(2-Hydroxy-ethyl)-piperazin-1-yl]-quinazolin-4-yl}-piperidine-1-carboxylic acid (4-pyrrolidin-1-yl-phenyl)-amide] returned an IC50 of 6 nM. Take `COCCN1CCN(c2ccc3c(C4CCN(C(=O)Nc5ccc(N6CCCC6)cc5)CC4)ncnc3c2)CC1` [Compound 186, 4-{7-[4-(2-Methoxy-ethyl)-piperazin-1-yl]-quinazolin-4-yl}-piperidine-1-carboxylic acid (4-pyrrolidin-1-yl-phenyl)-amide]: the half-maximal inhibitory concentration (IC50) was 15 nM. Compared with the last compound, the IC50 is about 2.5-fold higher.

`CCN1CCN(c2ccc3c(C4CCN(C(=O)Nc5ccc(N6CCCC6)cc5)CC4)ncnc3c2)CC1` [Compound 187, 4-[7-(4-Ethyl-piperazin-1-yl)-quinazolin-4-yl]-piperidine-1-carboxylic acid (4-pyrrolidin-1-yl-phenyl)-amide] showed an IC50 of 21 nM. For `O=C(Nc1ccc(N2CCCC2)cc1)N1CCC(c2ncnc3cc(OCC4CCOCC4)ccc23)CC1` [Compound 188, 4-[7-(Tetrahydro-pyran-4-ylmethoxy)-quinazolin-4-yl]-piperidine-1-carboxylic acid (4-pyrrolidin-1-yl-phenyl)-amide] the value was 67 nM; for `O=C(Nc1ccc(N2CCCC2)cc1)N1CCC(c2ncnc3cc(OC4CCOCC4)ccc23)CC1` [Compound 189, 4-[7-(Tetrahydro-pyran-4-yloxy)-quinazolin-4-yl]-piperidine-1-carboxylic acid (4-pyrrolidin-1-yl-phenyl)-amide], 286 nM. For `O=C(Nc1ccc(N2CCCC2)cc1)N1CCC(c2ncnc3cc(O[C@H]4CCOC4)ccc23)CC1` [Compound 190, (S)-4-[7-(Tetrahydro-furan-3-yloxy)-quinazolin-4-yl]-piperidine-1-carboxylic acid (4-pyrrolidin-1-yl-phenyl)-amide] the value was 88 nM. For `O=C(Nc1ccc(N2CCCC2)cc1)N1CCC(c2ncnc3cc(O[C@@H]4CCOC4)ccc23)CC1` [Compound 191, (R)-4-[7-(Tetrahydro-furan-3-yloxy)-quinazolin-4-yl]-piperidine-1-carboxylic acid (4-pyrrolidin-1-yl-phenyl)-amide] the value was 71 nM.

For `O=C(Nc1ccc(N2CCCC2)cc1)N1CCC(c2ncnc3cc(N4CCN(c5ccccn5)CC4)ccc23)CC1` [Compound 192, 4-[7-(4-Pyridin-2-yl-piperazin-1-yl)-quinazolin-4-yl]-piperidine-1-carboxylic acid (4-pyrrolidin-1-yl-phenyl)-amide], inhibition was half-maximal at 13 nM (IC50). For `O=C(Nc1ccc(N2CCCC2)cc1)N1CCC(c2ncnc3cc(N4CCN(c5ncccn5)CC4)ccc23)CC1` [Compound 193, 4-[7-(4-Pyrimidin-2-yl-piperazin-1-yl)-quinazolin-4-yl]-piperidine-1-carboxylic acid (4-pyrrolidin-1-yl-phenyl)-amide] the value was 16 nM; for `O=C(Nc1ccc(N2CCCC2)cc1)N1CCC(c2ncnc3cc(N4CCN(c5ccncc5)CC4)ccc23)CC1` [Compound 194, 4-[7-(4-Pyridin-4-yl-piperazin-1-yl)-quinazolin-4-yl]-piperidine-1-carboxylic acid (4-pyrrolidin-1-yl-phenyl)-amide], 0.4 nM; for `O=C(Nc1ccc(N2CCCC2)cc1)N1CCC(c2ncnc3cc(N4CCC(F)CC4)ccc23)CC1` [Compound 195, 4-[7-(4-Fluoro-piperidin-1-yl)-quinazolin-4-yl]-piperidine-1-carboxylic acid (4-pyrrolidin-1-yl-phenyl)-amide], 17 nM. `O=C(Nc1ccc(N2CCOCC2)cc1)N1CCC(c2ncnc3cc(N4CCC(F)CC4)ccc23)CC1` [Compound 196, 4-[7-(4-Fluoro-piperidin-1-yl)-quinazolin-4-yl]-piperidine-1-carboxylic acid (4-morpholin-4-yl-phenyl)-amide]: the IC50 turned out to be 75 nM.

`O=C(Nc1ccc(N2CCOCC2)cc1)N1CCC(c2ncnc3cc(N4CCNC4=O)ccc23)CC1` [Compound 197, 4-[7-(2-Oxo-imidazolidin-1-yl)-quinazolin-4-yl]-piperidine-1-carboxylic acid (4-morpholin-4-yl-phenyl)-amide] came in with a concentration for half-maximal inhibition (IC50) of 143 nM.

For `CCNC(=O)N1CCN(c2ccc3c(C4CCN(C(=O)Nc5ccc(N6CCCC6)cc5)CC4)ncnc3c2)CC1` [Compound 199, 4-{4-[1-(4-Pyrrolidin-1-yl-phenylcarbamoyl)-piperidin-4-yl]-quinazolin-7-yl}-piperazine-1-carboxylic acid ethylamide], the IC50 stood at 3 nM. This IC50 is about 48-fold lower than that of the compound before. For `O=C(CO)N1CCN(c2ccc3c(C4CCN(C(=O)Nc5ccc(N6CCCC6)cc5)CC4)ncnc3c2)CC1` [Compound 201, 4-{7-[4-(2-Hydroxy-acetyl)-piperazin-1-yl]-quinazolin-7-yl}-piperidine-1-carboxylic acid (4-pyrrolidin-1-yl-phenyl)-amide] the value was 16 nM; for `CN1CCN(CCOc2ccc3c(C4CCN(C(=O)Nc5ccc(N6CCCC6)cc5)CC4)ncnc3c2)CC1=O` [Compound 202, 4-{7-[2-(4-Methyl-3-oxo-piperazin-1-yl)-ethoxy]-quinazolin-4-yl}-piperidine-1-carboxylic acid (4-pyrrolidin-1-yl-phenyl)-amide], 74 nM. `CN1CCN(CCCOc2cc3ncnc(C4CCN(C(=O)Nc5ccc(N6CCOCC6)cc5)CC4)c3cc2F)CC1` [Compound 205, 4-{6-Fluoro-7-[3-(4-methyl-piperazin-1-yl)-propoxy]-quinazolin-4-yl}-piperidine-1-carboxylic acid (4-morpholin-4-yl-phenyl)-amide] displayed a 50% inhibitory concentration (IC50) of 78 nM. For `COc1cc2ncnc(C3CCN(C(=O)Nc4ccc(OC(C)C)cc4)CC3)c2cc1OC` [Example 1, 4-(6,7-Dimethoxy-quinazolin-4-yl)-piperidine-1-carboxylic acid (4-isopropoxy-phenyl)-amide hydrochloride] the value was 88 nM; for `CC(C)Oc1ccc(NC(=O)N2CCC(c3ncnc4ccc(C#CCN5CCOCC5)cc34)CC2)cc1` [Example 15, 4-[6-(3-Morpholin-4-yl-prop-1-ynyl)-quinazolin-4-yl]-piperidine-1-carboxylic acid (4-isopropoxy-phenyl)-amide], 30 nM; for `CC(C)c1ccc(NC(=O)CN2CCC(c3ncnc4ccccc34)CC2)cc1` [Example 16, N-(4-Isopropyl-phenyl)-2-(4-quinazolin-4-yl-piperidin-1-yl)-acetamide], 559 nM.

For the compound `COc1cc2ncnc(C3CCN(C(=O)Nc4ccc(OC5CCC5)nc4)CC3)c2cc1OC` [Example 17, 4-(6,7-Dimethoxy-quinazolin-4-yl)-piperidine-1-carboxylic acid (6-cyclobutoxy-pyridin-3-yl)-amide], the half-inhibitory concentration (IC50) amounted to 31 nM. For `COc1cc2ncnc(C3CCN(C(=O)Nc4ccc(N5CCOCC5)cc4)CC3)c2cc1OC` [Example 18, 4-(6,7-Dimethoxy-quinazolin-4-yl)-piperidine-1-carboxylic acid (4-morpholin-4-yl-phenyl)-amide] the value was 137 nM; for `COc1cc2ncnc(C3CCN(C(=O)Nc4ccc(N5CCCCC5)cc4)CC3)c2cc1OC` [Example 19, 4-(6,7-Dimethoxy-quinazolin-4-yl)-piperidine-1-carboxylic acid (4-piperidin-1-yl-phenyl)-amide], 10 nM; for `COc1cc2ncnc(C3CCN(C(=O)Nc4ccc(C5CCCCC5)cc4)CC3)c2cc1OC` [Example 21, 4-(6,7-Dimethoxy-quinazolin-4-yl)-piperidine-1-carboxylic acid (4-cyclohexyl-phenyl)-amide], 27 nM.

`COc1cc2ncnc(C3CCN(C(=O)Nc4ccc(CO)cc4)CC3)c2cc1OC` [Example 22, 4-(6,7-Dimethoxy-quinazolin-4-yl)-piperidine-1-carboxylic acid (4-hydroxymethyl-phenyl)-amide] had an IC50 of more than 10000 nM.

Consider `COc1cc2ncnc(C3CCN(C(=O)Nc4ccc5[nH]ccc5c4)CC3)c2cc1OC` [Example 23, 4-(6,7-Dimethoxy-quinazolin-4-yl)-piperidine-1-carboxylic acid (1H-indol-5-yl)-amide], for which 2700 nM corresponded to half-maximal inhibition (IC50). In other words, the single-digit micromolar range.
